Reference: ChEMBL document CHEMBL3826966, “A chromatography-free isolation of rohitukine from leaves of Dysoxylum binectariferum: Evaluation for in vitro cytotoxicity, Cdk inhibition and physicochemical properties” (Bioorg Med Chem Lett, 2016)
Converted amounts (≈) assume the structure as drawn.

Experiments:
[1] = target: Protein kinase C zeta type (Homo sapiens) (UniProt Q05513); test: Inhibition of human PKCzeta (2 to 592 residues) assessed as remaining enzyme activity at 50 uM after 30 mins by 33P-ATP filter-binding assay
Protein kinase C zeta type (Homo sapiens), sequence (Q05513 whole entry, the tested form may be a part): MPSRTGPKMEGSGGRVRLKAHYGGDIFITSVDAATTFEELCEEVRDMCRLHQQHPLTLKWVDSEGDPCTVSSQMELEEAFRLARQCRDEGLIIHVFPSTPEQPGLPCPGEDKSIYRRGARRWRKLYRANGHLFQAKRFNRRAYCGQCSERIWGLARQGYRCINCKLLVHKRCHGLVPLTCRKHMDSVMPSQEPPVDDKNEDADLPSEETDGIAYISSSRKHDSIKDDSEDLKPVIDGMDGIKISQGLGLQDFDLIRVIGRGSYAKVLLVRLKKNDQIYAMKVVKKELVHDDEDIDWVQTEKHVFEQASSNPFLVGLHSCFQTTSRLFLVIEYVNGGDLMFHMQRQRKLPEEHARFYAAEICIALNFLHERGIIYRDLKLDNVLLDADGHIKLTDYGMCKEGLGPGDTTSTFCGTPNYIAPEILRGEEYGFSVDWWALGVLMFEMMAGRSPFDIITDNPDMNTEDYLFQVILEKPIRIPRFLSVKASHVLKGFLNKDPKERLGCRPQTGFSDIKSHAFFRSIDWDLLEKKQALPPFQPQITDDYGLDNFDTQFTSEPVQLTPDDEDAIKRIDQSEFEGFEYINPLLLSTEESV

[2] = target: Serine/threonine-protein kinase 33 (Homo sapiens) (UniProt Q9BYT3); test: Inhibition of human STK33 (1 to 514 residues) assessed as remaining enzyme activity at 50 uM after 30 mins by 33P-ATP filter-binding assay
[3] = target: MAP kinase-activated protein kinase 5 (Homo sapiens) (UniProt Q8IW41); test: Inhibition of human PRAK (1 to 471 residues) assessed as remaining enzyme activity at 50 uM after 30 mins by 33P-ATP filter-binding assay
MAP kinase-activated protein kinase 5 (Homo sapiens), sequence (Q8IW41 whole entry, the tested form may be a part): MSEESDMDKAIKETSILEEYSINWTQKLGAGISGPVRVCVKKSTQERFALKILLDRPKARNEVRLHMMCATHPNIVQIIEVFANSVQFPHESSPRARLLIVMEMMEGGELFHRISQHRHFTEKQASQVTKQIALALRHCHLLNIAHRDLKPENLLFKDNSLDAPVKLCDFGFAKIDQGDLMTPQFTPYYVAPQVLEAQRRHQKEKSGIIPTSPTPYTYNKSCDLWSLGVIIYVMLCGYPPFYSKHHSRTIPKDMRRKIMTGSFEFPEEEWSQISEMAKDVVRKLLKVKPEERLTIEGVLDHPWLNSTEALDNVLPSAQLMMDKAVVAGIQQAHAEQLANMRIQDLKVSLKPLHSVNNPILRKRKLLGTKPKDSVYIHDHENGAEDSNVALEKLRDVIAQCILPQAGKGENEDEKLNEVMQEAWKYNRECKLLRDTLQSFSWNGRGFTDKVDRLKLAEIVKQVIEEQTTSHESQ

[4] = target: Serine/threonine-protein kinase SIK3 (Homo sapiens) (UniProt Q9Y2K2); test: Inhibition of human SIK3 (2 to 1369 residues) assessed as remaining enzyme activity at 50 uM after 30 mins by 33P-ATP filter-binding assay
[5] = target: Tau-tubulin kinase 1 (Homo sapiens) (UniProt Q5TCY1); test: Inhibition of human TTBK1 (1 to 1321 residues) assessed as remaining enzyme activity at 50 uM after 30 mins by 33P-ATP filter-binding assay
[6] = target: Dual specificity tyrosine-phosphorylation-regulated kinase 3 (Homo sapiens) (UniProt O43781); test: Inhibition of human DYRK3 (1 to 588 residues) assessed as remaining enzyme activity at 50 uM after 30 mins by 33P-ATP filter-binding assay
[7] = target: Serine/threonine-protein kinase 3 (Homo sapiens) (UniProt Q13188); test: Inhibition of human MST2 (2 to 491 residues) assessed as remaining enzyme activity at 50 uM after 30 mins by 33P-ATP filter-binding assay
[8] = target: Mitogen-activated protein kinase kinase kinase 11 (Homo sapiens) (UniProt Q16584); test: Inhibition of human MLK3 (96 to 386 residues) assessed as remaining enzyme activity at 50 uM after 30 mins by 33P-ATP filter-binding assay
[9] = target: Interleukin-1 receptor-associated kinase 4 (Homo sapiens) (UniProt Q9NWZ3); test: Inhibition of human IRAK4 (14 to 460 residues) assessed as remaining enzyme activity at 50 uM after 30 mins by 33P-ATP filter-binding assay
[10] = target: Serine/threonine-protein kinase OSR1 (Homo sapiens) (UniProt O95747); test: Inhibition of human OSR1 assessed as remaining enzyme activity at 50 uM after 30 mins by 33P-ATP filter-binding assay
Serine/threonine-protein kinase OSR1 (Homo sapiens), sequence (O95747 2-527 limits assumed): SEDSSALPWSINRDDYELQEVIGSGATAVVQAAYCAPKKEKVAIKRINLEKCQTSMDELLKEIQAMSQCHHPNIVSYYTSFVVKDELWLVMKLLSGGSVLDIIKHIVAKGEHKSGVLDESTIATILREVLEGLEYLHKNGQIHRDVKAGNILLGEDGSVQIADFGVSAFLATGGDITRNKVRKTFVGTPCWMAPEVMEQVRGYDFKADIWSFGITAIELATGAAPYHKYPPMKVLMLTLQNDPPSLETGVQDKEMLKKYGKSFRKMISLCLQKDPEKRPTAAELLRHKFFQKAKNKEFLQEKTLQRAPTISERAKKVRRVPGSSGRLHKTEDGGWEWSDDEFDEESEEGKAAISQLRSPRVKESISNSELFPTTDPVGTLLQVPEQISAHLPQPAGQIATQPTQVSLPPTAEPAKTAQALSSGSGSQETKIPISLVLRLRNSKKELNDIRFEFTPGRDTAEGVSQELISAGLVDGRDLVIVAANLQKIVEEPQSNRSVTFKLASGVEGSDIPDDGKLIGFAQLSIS

[11] = target: Serine/threonine-protein kinase 16 (Homo sapiens) (UniProt O75716); test: Inhibition of human MPSK1 (1 to 305 residues) assessed as remaining enzyme activity at 50 uM after 30 mins by 33P-ATP filter-binding assay
[12] = target: Serine/threonine-protein kinase WNK1 (Homo sapiens) (UniProt Q9H4A3); test: Inhibition of human WNK1 (1 to 661 residues) assessed as remaining enzyme activity at 50 uM after 30 mins by 33P-ATP filter-binding assay
Serine/threonine-protein kinase WNK1 (Homo sapiens), sequence (Q9H4A3 whole entry, looked up, the tested form may be a part): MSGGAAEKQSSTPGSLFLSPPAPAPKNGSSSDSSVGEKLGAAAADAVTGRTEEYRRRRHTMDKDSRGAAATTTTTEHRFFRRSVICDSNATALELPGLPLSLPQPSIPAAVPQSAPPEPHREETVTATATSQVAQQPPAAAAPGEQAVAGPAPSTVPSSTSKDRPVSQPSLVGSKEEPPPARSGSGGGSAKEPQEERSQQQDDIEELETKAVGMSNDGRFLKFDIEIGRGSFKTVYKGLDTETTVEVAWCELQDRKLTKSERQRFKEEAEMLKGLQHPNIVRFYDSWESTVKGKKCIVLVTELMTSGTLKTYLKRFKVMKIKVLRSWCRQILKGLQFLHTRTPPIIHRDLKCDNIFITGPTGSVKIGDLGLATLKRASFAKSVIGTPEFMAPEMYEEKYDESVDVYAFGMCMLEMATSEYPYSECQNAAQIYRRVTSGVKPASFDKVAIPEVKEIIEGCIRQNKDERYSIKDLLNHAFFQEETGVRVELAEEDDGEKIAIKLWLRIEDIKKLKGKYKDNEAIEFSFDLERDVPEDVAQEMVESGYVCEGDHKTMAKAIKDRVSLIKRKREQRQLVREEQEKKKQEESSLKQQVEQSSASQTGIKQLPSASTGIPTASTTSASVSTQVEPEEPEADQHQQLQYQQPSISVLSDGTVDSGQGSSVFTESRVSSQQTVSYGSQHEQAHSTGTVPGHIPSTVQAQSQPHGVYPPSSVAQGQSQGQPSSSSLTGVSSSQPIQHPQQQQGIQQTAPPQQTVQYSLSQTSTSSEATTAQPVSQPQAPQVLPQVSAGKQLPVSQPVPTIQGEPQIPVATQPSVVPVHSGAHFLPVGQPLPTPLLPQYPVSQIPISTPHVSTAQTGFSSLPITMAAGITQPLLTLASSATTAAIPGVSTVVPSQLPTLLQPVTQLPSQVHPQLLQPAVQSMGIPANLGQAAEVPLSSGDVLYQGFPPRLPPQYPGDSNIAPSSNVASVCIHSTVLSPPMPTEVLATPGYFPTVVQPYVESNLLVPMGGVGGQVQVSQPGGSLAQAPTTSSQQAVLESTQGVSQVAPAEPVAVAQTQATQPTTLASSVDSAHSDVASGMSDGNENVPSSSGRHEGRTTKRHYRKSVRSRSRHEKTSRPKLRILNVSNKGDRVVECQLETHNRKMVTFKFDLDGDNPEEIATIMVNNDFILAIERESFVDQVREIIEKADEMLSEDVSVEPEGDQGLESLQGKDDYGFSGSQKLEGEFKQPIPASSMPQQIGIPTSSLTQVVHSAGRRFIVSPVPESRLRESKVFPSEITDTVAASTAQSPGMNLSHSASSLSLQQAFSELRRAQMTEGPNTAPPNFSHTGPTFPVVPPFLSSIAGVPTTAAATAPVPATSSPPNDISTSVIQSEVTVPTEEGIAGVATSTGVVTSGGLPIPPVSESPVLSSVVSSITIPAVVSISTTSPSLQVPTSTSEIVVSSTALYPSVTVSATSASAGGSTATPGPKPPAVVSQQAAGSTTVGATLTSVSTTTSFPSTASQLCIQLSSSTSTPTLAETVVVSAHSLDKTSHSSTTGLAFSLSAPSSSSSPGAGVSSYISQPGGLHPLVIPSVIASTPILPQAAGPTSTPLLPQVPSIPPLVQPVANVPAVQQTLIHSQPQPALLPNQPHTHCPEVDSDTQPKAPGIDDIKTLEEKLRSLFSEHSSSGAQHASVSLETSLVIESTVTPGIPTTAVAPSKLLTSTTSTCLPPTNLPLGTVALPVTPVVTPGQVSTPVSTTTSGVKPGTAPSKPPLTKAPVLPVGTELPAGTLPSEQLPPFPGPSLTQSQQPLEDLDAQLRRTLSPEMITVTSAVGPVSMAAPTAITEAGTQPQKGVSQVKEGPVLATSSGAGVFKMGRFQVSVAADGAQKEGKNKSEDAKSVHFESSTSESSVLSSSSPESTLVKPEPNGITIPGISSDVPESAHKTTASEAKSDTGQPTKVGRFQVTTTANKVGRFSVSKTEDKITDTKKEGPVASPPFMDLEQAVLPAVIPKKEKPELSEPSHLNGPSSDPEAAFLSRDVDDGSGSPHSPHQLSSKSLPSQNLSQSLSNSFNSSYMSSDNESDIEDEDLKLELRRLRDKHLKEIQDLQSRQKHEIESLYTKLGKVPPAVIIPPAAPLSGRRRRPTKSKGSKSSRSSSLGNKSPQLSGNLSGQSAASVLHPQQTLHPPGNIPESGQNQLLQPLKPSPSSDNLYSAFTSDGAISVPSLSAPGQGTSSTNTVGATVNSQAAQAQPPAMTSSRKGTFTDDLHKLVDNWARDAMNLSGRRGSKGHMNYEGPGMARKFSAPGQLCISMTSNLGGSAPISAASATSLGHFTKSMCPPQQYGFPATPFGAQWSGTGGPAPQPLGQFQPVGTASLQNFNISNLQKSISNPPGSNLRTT

[13] = target: Tyrosine-protein kinase SYK (Homo sapiens) (UniProt P43405); test: Inhibition of human SYK (1 to 635 residues) assessed as remaining enzyme activity at 50 uM after 30 mins by 33P-ATP filter-binding assay
[14] = target: Ephrin type-A receptor 2 (Homo sapiens) (UniProt P29317); test: Inhibition of human EPHA2 (591 to 976 residues) assessed as remaining enzyme activity at 50 uM after 30 mins by 33P-ATP filter-binding assay
Ephrin type-A receptor 2 (Homo sapiens), sequence (P29317 whole entry, the tested form may be a part): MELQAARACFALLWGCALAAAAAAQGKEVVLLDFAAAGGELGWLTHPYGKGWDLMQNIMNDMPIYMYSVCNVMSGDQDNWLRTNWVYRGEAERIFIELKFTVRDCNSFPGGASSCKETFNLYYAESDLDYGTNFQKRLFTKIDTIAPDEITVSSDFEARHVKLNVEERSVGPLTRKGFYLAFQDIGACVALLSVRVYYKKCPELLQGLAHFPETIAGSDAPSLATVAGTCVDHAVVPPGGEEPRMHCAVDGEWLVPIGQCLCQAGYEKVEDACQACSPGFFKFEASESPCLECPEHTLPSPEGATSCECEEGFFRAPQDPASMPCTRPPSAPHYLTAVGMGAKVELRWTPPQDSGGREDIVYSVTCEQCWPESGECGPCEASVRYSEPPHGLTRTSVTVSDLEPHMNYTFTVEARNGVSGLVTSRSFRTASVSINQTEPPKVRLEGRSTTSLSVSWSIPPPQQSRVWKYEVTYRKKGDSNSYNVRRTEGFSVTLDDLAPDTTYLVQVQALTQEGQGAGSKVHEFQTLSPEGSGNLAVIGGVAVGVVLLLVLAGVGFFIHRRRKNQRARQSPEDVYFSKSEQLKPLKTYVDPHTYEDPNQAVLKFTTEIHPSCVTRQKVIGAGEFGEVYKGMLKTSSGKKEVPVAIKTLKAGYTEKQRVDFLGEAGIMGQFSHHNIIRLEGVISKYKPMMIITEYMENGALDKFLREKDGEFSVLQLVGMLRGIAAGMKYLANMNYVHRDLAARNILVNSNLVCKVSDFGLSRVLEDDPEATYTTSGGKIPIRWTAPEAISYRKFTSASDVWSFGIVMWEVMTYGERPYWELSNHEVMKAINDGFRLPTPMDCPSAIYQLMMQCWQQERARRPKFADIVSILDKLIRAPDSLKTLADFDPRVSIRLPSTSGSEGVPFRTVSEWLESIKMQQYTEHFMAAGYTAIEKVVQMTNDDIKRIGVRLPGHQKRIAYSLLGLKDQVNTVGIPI

[15] = target: Ephrin type-B receptor 1 (Homo sapiens) (UniProt P54762); test: Inhibition of human EPHB1 (565 to 984 residues) assessed as remaining enzyme activity at 50 uM after 30 mins by 33P-ATP filter-binding assay
[16] = target: High affinity nerve growth factor receptor (Homo sapiens) (UniProt P04629); test: Inhibition of human TRKA (441 to 760 residues) assessed as remaining enzyme activity at 50 uM after 30 mins by 33P-ATP filter-binding assay
[17] = target: Vascular endothelial growth factor receptor (Homo sapiens) (UniProt P17948+P35916+P35968); test: Inhibition of human VEGFR assessed as remaining enzyme activity at 50 uM after 30 mins by 33P-ATP filter-binding assay; format: protein assay
HL-60 = test: Induction of apoptosis in human HL60 cells assessed as apoptotic cells at 5 uM (reference value: 1 %); format: functional
[18] = Cell cycle arrest in human HL60 cells assessed as accumulation at G1 phase at 1 uM (reference value: 59 %); format: functional, cell-based; conditions: HL-60
[19] = Cell cycle arrest in human HL60 cells assessed as accumulation at G2 phase at 10 uM (reference value: 5 %); format: functional, cell-based; conditions: HL-60
[20] = Thermodynamic equilibrium solubility in water at 120 ug/ml by HPLC analysis; format: physicochemical; conditions: read-out: Therm_solubility
[21] = Ionization constant, pKa of the compound in buffer at pH 1 to 13 by uV spectrophotometry; format: physicochemical
CDK9/cyclin T1 = CDK9/cyclin T1 (Homo sapiens, UniProt P50750); test: Inhibition of human Cdk9/T1 using YSPTSPSYSPTSPSYSPTSPKKK peptide as substrate after 30 mins by 33P-ATP filter-binding assay; format: protein-complex assay
[22] = Cytotoxicity against human MIAPaCa2 cells assessed as cell growth inhibition after 48 hrs by MTT assay; format: functional; conditions: MIA PaCa-2, 48 h
U-251 = test: Cytotoxicity against human U251 cells assessed as cell growth inhibition after 48 hrs by MTT assay; format: functional; conditions: U-251, 48 h
[23] = Cytotoxicity against HEK293 cells assessed as cell growth inhibition after 48 hrs by MTT assay; format: cell-based; conditions: human
[24] = target: Dual specificity mitogen-activated protein kinase kinase 2 (Homo sapiens) (UniProt P36507); test: Inhibition of human MKK2 (2 to 400 residues) assessed as remaining enzyme activity at 50 uM after 30 mins by 33P-ATP filter-binding assay
[25] = target: Mitogen-activated protein kinase 10 (Homo sapiens) (UniProt P53779); test: Inhibition of human JNK3 (40 to 422 residues) assessed as remaining enzyme activity at 50 uM after 30 mins by 33P-ATP filter-binding assay
[26] = target: Mitogen-activated protein kinase 14 (Homo sapiens) (UniProt Q16539); test: Inhibition of human p38alpha MAPK (1-360 residues) assessed as remaining enzyme activity at 50 uM after 30 mins by 33P-ATP filter-binding assay
[27] = target: Mitogen-activated protein kinase 12 (Homo sapiens) (UniProt P53778); test: Inhibition of human p38gamma MAPK (1 to 367 residues) assessed as remaining enzyme activity at 50 uM after 30 mins by 33P-ATP filter-binding assay
[28] = target: Rho-associated protein kinase 2 (Rattus norvegicus) (UniProt Q62868); test: Inhibition of rat ROCK2 (2 to 543 residues) assessed as remaining enzyme activity at 50 uM after 30 mins by 33P-ATP filter-binding assay

- Activity [1]: 118%
- Activity [2]: 54%
- Activity [3]: 72%
- Activity [4]: 28%
- Activity [5]: 82%
- Activity [6]: 77%
- Activity [7]: 46%
- Activity [8]: 58%
- Activity [9]: 75%
- Activity [10]: 93%
- Activity [11]: 87%
- Activity [12]: 100%
- Activity [13]: 109%
- Activity [14]: 38%
- Activity [15]: 54%
- Activity [16]: 89%
- Activity [17]: 18%
- solubility thermodynamic [20]: 10.2 mg/mL (≈ 33.6 mM)
- pKa [21]: 5.83
- IC50 (CDK9/cyclin T1): 0.3 µM
- Activity [24]: 44%
- Activity [25]: 87%
- Activity [26]: 69%
- Activity [27]: 27%
- Activity [28]: 64%
Structure (SMILES): Cc1cc(=O)c2c(O)cc(O)c([C@H]3CCN(C)C[C@H]3O)c2o1 [ROHITUKINE]
- Activity (HL-60): 4%
- Activity [18]: 34%
- Activity [19]: 4%
- GI50 [22]: 19 µM
- GI50 (U-251): 32 µM
- GI50 at 48 h [23]: > 50 µM
